Data published in PubChem BioAssay (NCI).
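Exposure lasted 48 hours, with cells grown in 96-well plates and compounds tested at five concentrations. GI50 is the concentration that inhibits growth by half. TGI denotes the concentration required for complete inhibition of growth.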

Key:
Assay in all cases: inhibition of tumour cell growth, NCI panel, 48 h
[1] = system: RPMI-8226 leukemia
[2] = system: BT-549 breast
[3] = system: SNB-19 CNS
[4] = system: K-562 leukemia
[5] = system: CAKI-1 renal
[6] = system: HOP-92 NSCLC
[7] = system: SK-MEL-28 melanoma
[8] = system: UO-31 renal
[9] = system: RXF 393 renal
[10] = system: SK-MEL-5 melanoma
[11] = system: EKVX NSCLC
[12] = system: HL-60(TB) leukemia
[13] = system: SF-295 CNS
[14] = system: MCF7 breast
[15] = system: DU-145 prostate
[16] = system: NCI-H23 lung
[17] = system: HCC-2998 colon
[18] = system: U251 CNS
[19] = system: MDA-MB-435
[20] = system: LOX IMVI melanoma
[21] = system: OVCAR-8 ovarian
[22] = system: SK-OV-3 ovarian
[23] = system: A549 NSCLC
[24] = system: HCT-15 colon
[25] = system: MDA-MB-468 breast
[26] = system: HT29 colon
[27] = system: NCI/ADR-RES ovarian
[28] = system: UACC-62 melanoma
[29] = system: SK-MEL-2 melanoma
[30] = system: TK-10 renal

SMILES: C#C[C@]1(O)CC[C@H]2[C@@H]3CC=C4c5sc(Nc6cc(C)cc(C)n6)nc5CC[C@]4(C)[C@H]3CC[C@@]21C
- TGI [1]: > 100 µM
- GI50 [2]: > 100 µM
- TGI [2]: > 100 µM
- GI50 [3]: > 100 µM
- TGI [3]: > 100 µM
- GI50 [4]: > 100 µM
- TGI [4]: > 100 µM
- GI50 [5]: > 100 µM
- TGI [5]: > 100 µM
- GI50 [6]: > 100 µM
- TGI [6]: > 100 µM
- GI50 [7]: > 100 µM
- TGI [7]: > 100 µM
- GI50 [8]: > 100 µM
- TGI [8]: > 100 µM
- GI50 [9]: > 100 µM
- TGI [9]: > 100 µM
- GI50 [10]: > 100 µM
- TGI [10]: > 100 µM
- GI50 [11]: > 100 µM
- TGI [11]: > 100 µM
- GI50 [12]: > 100 µM
- TGI [12]: > 100 µM
- GI50 [13]: > 100 µM
- TGI [13]: > 100 µM
- GI50 [14]: > 100 µM
- TGI [14]: > 100 µM
- GI50 [15]: > 100 µM
- TGI [15]: > 100 µM
- GI50 [16]: > 100 µM
- TGI [16]: > 100 µM
- GI50 [17]: > 100 µM
- TGI [17]: > 100 µM
- GI50 [18]: > 100 µM
- TGI [18]: > 100 µM
- GI50 [19]: > 100 µM
- TGI [19]: > 100 µM
- GI50 [20]: > 100 µM
- TGI [20]: > 100 µM
- GI50 [21]: > 100 µM
- TGI [21]: > 100 µM
- GI50 [22]: > 100 µM
- TGI [22]: > 100 µM
- GI50 [23]: > 100 µM
- TGI [23]: > 100 µM
- GI50 [24]: > 100 µM
- TGI [24]: > 100 µM
- GI50 [25]: > 100 µM
- TGI [25]: > 100 µM
- GI50 [26]: > 100 µM
- TGI [26]: > 100 µM
- GI50 [27]: > 100 µM
- TGI [27]: > 100 µM
- GI50 [28]: > 100 µM
- TGI [28]: > 100 µM
- GI50 [29]: > 100 µM
- TGI [29]: > 100 µM
- GI50 [30]: > 100 µM
- TGI [30]: > 100 µM
